Key:
[1] = system: BALB/c cells (primary peritoneal macrophages); experiment: LPS-IFN-γ-induced macrophage NO production (Griess nitrite assay), BALB/c cells; type: cell-based, mouse; conditions: 50 μM, 24 h; for NO release (%): relative to DMSO treated cells; for inhibition at 50 µM: Mus musculus, Peritoneal macrophage
Experimental: (§1) Isolation of primary mouse macrophages. Peritoneal exudate macrophages were isolated by peritoneal lavage with ice-cold sterile physiological saline 24 h after intraperitoneal injection of BALB/c and CB57BL/6 mice with 0.3 ml of sterile Zymosan A (1 mg/0.5 ml 0.9% saline). Cells were washed, resuspended in RPMI 1640 supplemented with 2 mM L-glutamine, 100 units/ml penicillin, 100 μg/ml streptomycin, and 5% FBS.
(§2) Treatment of primary macrophages and RAW 264.7 cells. Primary macrophages (1.5×10^5 cells/well) and RAW 264.7 (4×10^4 cells/well) cells were grown in 96-well plates (nitrite assay), or 6-well plates (2×10^6 cells/well) for measurement of iNOS and COX-2 expression. Following 3 h incubation, at 37 C, 5% CO2 (macrophages were allowed to attach) cells were stimulated with LPS (0.5 μg/ml) and IFN-γ (100 U/ml) in the absence or presence of various concentrations of ILK inhibitors (all treatments were replicated six times). Cells were incubated for an additional 24 h, and cell free culture supernatants from each well were collected for NO and cytokine determination. The remaining cells were stained with crystal violet to determine effect of the inhibitors on cell survival.
(§3) NO production. Following stimulation, the production of NO was determined by assaying culture supernatants for NO2^−, a stable reaction product of NO with molecular oxygen. Briefly, 100 μl of culture supernatant was reacted with an equal volume of Griess reagent at room temperature for 10 min. The absorbance at 550 nm was determined. All measurements were performed six times. The concentration of NO2^−was calculated by comparison with a standard curve prepared using NaNO2.
(§4) Effects of ILK inhibitors on LPS-IFN-γ-induced NO release. […] […] To compare the effect of the compounds across three different cell types, the NO release for each cell type was expressed relative to DMSO treated cells. […] For example, macrophages from Balb/c and C57BL/6 mice responded similarly to the treatment with the compounds.

[2] = system: C57BL/6 cells (primary peritoneal macrophages); experiment: LPS-IFN-γ-induced macrophage NO production (Griess nitrite assay), C57BL/6 cells; type: cell-based, mouse; conditions: 50 μM, 24 h; for NO release (%): relative to DMSO treated cells; for inhibition at 50 µM: Mus musculus, Peritoneal macrophage
Experimental: as §1, §2, §3, §4

RAW 264.7 cells = experiment: LPS-IFN-γ-induced macrophage NO production (Griess nitrite assay), RAW 264.7 cells; type: cell-based, murine; conditions: 24 h; for NO release (%): 50 μM, relative to DMSO treated cells; for inhibition at 50 µM: Mus musculus, RAW264.7, 50 μM
Experimental: RAW 264.7 cells. RAW 264.7 cells, a murine macrophage cell line, were obtained from American Type Culture Collection (ATCC, Manassas, Va.) and cultured in DMEM supplemented with 10% FCS. Each treatment was performed in triplicate wells. RAW 264.7 cells (Balb/c background) produce a significant amount of nitric oxide upon treatment with IFN-γ alone, but require LPS for full activation. This property makes their behavior more like that of normal macrophages obtained from commonly used strains of mice.
as §2, with “Primary macrophages (1.5×10^5 cells/well) and RAW 264.7 (4×10^4 cells/well) cells were grown in 96-well plates (nitrite assay), or 6-well plates (2×10^6 cells/well) for measurement of iNOS and COX-2 expression.” left out
as §3
Effects of ILK inhibitors on LPS-IFN-γ-induced NO release. […] […] To compare the effect of the compounds across three different cell types, the NO release for each cell type was expressed relative to DMSO treated cells.

iNOS = iNOS protein expression in LPS-IFN-γ stimulated macrophages (western blot); type: cell-based, murine; conditions: LPS-IFN-γ stimulated macrophages, western blot
Experimental: (§5) Western blot analysis. After incubation with the indicated stimuli in the presence of ILK inhibitors, cells (duplicate samples, 2×10^6cell/6-wells plate) were washed in PBS and lysed on ice in 60 μl of lysis buffer. The protein content of each sample was determined using the Bradford protein assay kit (Bio-Rad, Richmond, Calif.). Absorbance was measured at 750 nm with a Beckman DU530 spectrophotometer (Palo Alto, Calif.). Proteins were mixed with […] sample buffer. Following separation of proteins by SDS-PAGE, using 8% bis-acrylamide in the separation gel, the proteins were transferred from the gels onto PVDF membranes using a MiniProtean III Cell (Bio-Rad), at 100 V for 1.5 h. Equal amounts of protein (5 μg) were loaded onto SDS-PAGE gels and examined by Western blot analysis with anti-Actin, anti-iNOS, anti-COX-2 murine monoclonal antibodies according to the manufacturers specifications (Transduction Laboratories). Primary Abs, in 5% blocking buffer (5% NFM/TTBS), were incubated with blots 2 h or overnight at 4° C., followed by incubation with peroxidase-conjugated secondary antibody. Chemiluminescence substrates were used to reveal positive bands. The bands were exposed on x-ray films. […] The Multi-Analyst/PC system from Biorad is being used to quantitate the bands of the expressed protein on the film. […] White light is chosen as the selected light source, thus the signal strength is measured in OD (optic density) units. […]
(§6) Effects of ILK inhibitors on the LPS-IFN-γ-induced iNOS and COX-2 expression NO production requires that iNOS be enzymatically activity, therefore experiments were performed to examine whether the inhibitory effect of ILK inhibitors was mediated by […] iNOS protein synthesis or effects on the activity of existing enzyme. Stimulated cells were treated with ILK inhibitors (25 μM), and lysed 16 h later and a western blot analysis was performed to quantitate iNOS protein expression. […]

COX-2 = COX-2 protein expression in LPS-IFN-γ stimulated macrophages (western blot); type: cell-based, murine; conditions: LPS-IFN-γ stimulated macrophages, western blot
Experimental: as §5, with “Laboratories).” for “Laboratories). Primary Abs, in 5% blocking buffer (5% NFM/TTBS), were incubated with blots 2 h or overnight at 4° C., followed by incubation with peroxidase-conjugated secondary antibody. Chemiluminescence substrates were used to reveal positive bands. The bands were exposed on x-ray films.”
as §6
Nitric oxide and Prostaglandin E2 are two pleiotropic mediators produced at inflammatory sites by the inducible enzymes iNOS and cyclooxygenase-2 (COX-2), respectively. […] Finally, we evaluated the in-vitro effects of compounds on production of MCP-1 chemokine by TNF-α stimulated HUVEC cells. […]

Compound	NO release (%) [1] [%]	inhibition at 50 µM [1] [%]	NO release (%) [2] [%]	inhibition at 50 µM [2] [%]	NO release (%) (RAW 264.7 cells)	inhibition at 50 µM (RAW 264.7 cells) [%]	iNOS protein expression (in words) (iNOS)	COX-2 protein expression (in words) (COX-2)
N=C(N)N/N=C/c1ccc(Cl)cc1Cl [KP-16735]	−4.2	106	−7.0	114	20.4	73	significantly inhibited the expression of iNOS protein	significant decrease of COX-2 protein expression
Oc1ccc2c(c1)CC1NCCc3cc(O)c(O)c-2c31 (stereo not shown) [KP-21849, 5,6,6a,7-Tetrahydro-4H-dibenzo[de,g]quinoline-1,2,9-triol]	−4.2	110	−8.0	118	−0.1	100	significantly inhibited the expression of iNOS protein	significant decrease of COX-2 protein expression
